Measurements as given in US8178506B2, “Oligomeric compounds and compositions for use in modulation of small non-coding RNAs” (Regulus Therapeutics Inc., priority 2003, dated 2012).
Where “and” joins values, the source holds several entries; their conditions need not be identical. Equal values may be shown once. In the oligonucleotide strings, read from the 5' end, every base follows the letter of its sugar. An asterisk marks phosphorothioate; unmarked linkages are phosphodiester. Other units and linkages are bracketed, terminal groups are in braces. A string of capitals states the bases alone. e = 2'-O-(2-methoxyethyl) (MOE); [5mC] = 5-methylcytosine; d = 2'-deoxy (DNA)

Tested on: HeLa cells
Experiment: Cell cycle assay in HeLa cells
Type: cell-based, human
[1] = HeLa cells, 150 nM oligomeric compound, 24 hours, relative to untreated control (UTC = 100)
[2] = HeLa cells, 150 nM oligomeric compound, 48 hours after treatment, relative to untreated control (UTC=100)

Substance	% cells aneuploid [1]	% cells in cell cycle phase G1 [1]	% cells in cell cycle phase G2/M [1]	% cells in cell cycle phase S [1]	% cells in cell cycle phase subG1 [1]	% cells in cell cycle phase: G1 [2]	% cells in cell cycle phase: G2/M [2]	% cells in cell cycle phase: S [2]	% cells in cell cycle phase: aneuploid [2]	% cells in cell cycle phase: subG1 [2]	phase of the cell cycle in which cells arrest or delay (HeLa, 150 nM, 48 hours)
340927 (antisense eT*eG*eA*eG*e[5mC]*dT*dA*d[5mC]*dA*dG*dT*dG*d[5mC]*dT*dT*e[5mC]*eA*eT*e[5mC]*eT*e[5mC]*eA) [compound 340927]	88% and 87%	121% and 128%	111% and 106%	75% and 71%	118% and 131%	91%	121% and 122%	107%	113% and 108%	95% and 83%	–
ACTTTCGGTTATCTAGCTTTA [ISIS 327892] (chemistry not given here) [uniform 2′-MOE PS; targets mir-131-2/mir-9]	–	–	–	–	–	–	–	–	–	–	G2/M- and S-phases
